Experimental data from patent publication US12653800B2, “Small molecule inhibitors of TLR2 signaling” (University of Maryland, Baltimore, priority 2015, dated 2026).
“Also recorded” adds a separate entry of the source.

How the values were obtained:
[1] = system: HEK-TLR2 stable transfectants; assay: LDH release cytotoxicity assay; assay type: cell-based, human; settings: C29 10 μM or 50 μM
Description: FIG. 7. C29 is not cytotoxic to HEK-TLR2 stable transfectants. Cells were pretreated for 1 hr with media, vehicle (65 μM NaOH), or C29 (10 μM or 50 μM) and then stimulated with P3C (200 ng/mL), P2C (200 ng/mL), or hTNF-α (300 ng/mL) for 1 hr in the presence of media, vehicle, or C29. Supernatants of cell cultures were collected and analyzed for LDH release as a measure of cell cytotoxicity with Triton X-lysed cells serving as the positive control. LDH release is representative of 1 of 2 independent experiments carried out in duplicate.
Cellular cytotoxicity was determined by measuring lactate dehydrogenase (LDH) activity released in the media after treatment with TLR agonist or TNF-α in the presence of media, vehicle (NaOH), or C29 using the CytoTox 96 nonradioactive cytotoxicity assay (Promega, Madison, WI) and quantified by measuring wavelength absorbance at 490 nm. Treatment of cells with Triton X-100 served as the positive control.

[2] = system: MyD88-independent pathway; assay: IFN-β mRNA in murine macrophages stimulated with agonists that induce IFN-β; assay type: cell-based; settings: C29 50 μM, 3 hrs
Description: FIG. 10. Examining the broader specificity of C29 for TLR2 signaling. (A, B) Total RNA was extracted from murine macrophages that had been pretreated for 1 hr with vehicle (65 μM NaOH) or C29 (50 μM) and then stimulated with P3C (50 ng/mL), P2C (100 ng/mL), zymosan (10 μg/mL), S. aureus LTA (1 μg/mL), poly(I:C) (10 μg/mL), LPS (100 ng/mL), R848 (10 μg/mL), or CpG ODN 1668 (5 μM) for 3 hrs in the presence of vehicle or C29. IL-1β and IFN-β mRNA were measured as described in FIG. 1, panel D. (C) THP-1 cells were plated in the presence of PMA (20 ng/mL) for 24 hrs and washed twice in media. Total RNA was extracted from cell cultures pretreated for 1 hr with vehicle (260 μM NaOH) or C29 (50 μM, 100 μM, or 200 μM) and then stimulated with zymosan (10 μg/mL) or S. aureus LTA (1 μg/mL) for 4 hrs in the presence of vehicle or C29. IL-1β mRNA was measured as described in FIG. 1, panel B. Quantitative real-time results represent the mean±SEM from 2 independent experiments each carried out in duplicate (*, p≤0.05; **, p≤0.01; ***, p≤0.001).
Cytokine gene expression was measured by qRT-PCR with transcript-specific primers using SYBR Green in the ABI Prism 7900 Fast Real Time PCR system (Applied Biosystems, Foster City, CA) as described (Cole L E, et al. (2006) Journal of immunology 176(11):6888-6899). […]

[3] = system: MAPK and NF-κβ activation; assay: Western analysis of MAPK and NF-κβ activation in murine peritoneal macrophages; assay type: cell-based; settings: C29 50 μM, P3C 50 ng/mL
Description: FIG. 2. C29 inhibits ligand-induced interaction of TLR2 with MyD88 and blocks MAPK and NF-κβ activation. (A) THP-1 cells were cultured in the presence of PMA (20 ng/mL) for 24 hrs and washed twice in media. THP-1 human monocytes were pretreated with media, vehicle (195 μM NaOH), or C29 (150 μM) for 1 hr and treated with P3C (50 ng/mL) in the presence of media, vehicle, or C29 for 15 or 30 min. Co-immunoprecipitation (IP) was carried out using anti-MyD88 antibody and Western analysis (IB) using whole cell lysates. (B) Densitometry analysis (mean±SEM) of 3 independent experiments as shown in (A). (C) Murine peritoneal macrophages were pretreated for 1 hr with media, vehicle (65 μM NaOH), or C29 (50 μM) and treated with P3C (50 ng/mL) for 5-30 min in the presence of media, vehicle, or C29. IB was performed using whole cell lysates and antibodies directed against the signaling intermediates indicated. β-actin was probed as a loading protein. Panel A is representative of 3 independent experiments and panel B is the mean±SEM from 3 independent experiments (*, p≤0.05). Panel B is representative of 2 independent experiments.
Cells were treated and washed once with 1×PBS and lysed using buffer containing 20 mM HEPES (pH 7.4), 150 mM NaCl, 1 mM EDTA, 1 mM EGTA (pH 8.0), 50 mM NaF, 0.5% Triton X-100, 1 mM Na3VO4, 1 mM DTT, 1 mM PMSF, and protease inhibitor (Roche Applied Science, Indianapolis, IN). Cells were harvested and protein was quantified using BCA Protein assay reagents (Thermo Scientific/Pierce, Rockford, IL). Whole cell lysates (500 μg/500 μL) were precleared using 10 μL of pre-washed Protein G Agarose (Roche Applied Science, Indianapolis, IN) for 2 hours at 4° C. with rotation. Precleared samples were incubated with the respective antibody and rotated overnight at 4° C. Pre-washed Protein G (40 μL) was added to each sample and rotated for 4 h at 4° C. Beads were washed three times in lysis buffer (without protease inhibitor) and finally in complete lysis buffer. Beads were resuspended in 2× Laemmli Sample Buffer and boiled for 10 min. […]

TLR2/1 = TLR2/1 (Homo sapiens, UniProt O60603); assay: IL-1β mRNA in THP-1 cells stimulated with TLR2/1 agonists (P3C, S. aureus LTA); assay type: cell-based; parameters: expressed in transfected cells; settings: C29 50, 100 or 200 μM
Chain of TLR2/1 (O60603 21-784): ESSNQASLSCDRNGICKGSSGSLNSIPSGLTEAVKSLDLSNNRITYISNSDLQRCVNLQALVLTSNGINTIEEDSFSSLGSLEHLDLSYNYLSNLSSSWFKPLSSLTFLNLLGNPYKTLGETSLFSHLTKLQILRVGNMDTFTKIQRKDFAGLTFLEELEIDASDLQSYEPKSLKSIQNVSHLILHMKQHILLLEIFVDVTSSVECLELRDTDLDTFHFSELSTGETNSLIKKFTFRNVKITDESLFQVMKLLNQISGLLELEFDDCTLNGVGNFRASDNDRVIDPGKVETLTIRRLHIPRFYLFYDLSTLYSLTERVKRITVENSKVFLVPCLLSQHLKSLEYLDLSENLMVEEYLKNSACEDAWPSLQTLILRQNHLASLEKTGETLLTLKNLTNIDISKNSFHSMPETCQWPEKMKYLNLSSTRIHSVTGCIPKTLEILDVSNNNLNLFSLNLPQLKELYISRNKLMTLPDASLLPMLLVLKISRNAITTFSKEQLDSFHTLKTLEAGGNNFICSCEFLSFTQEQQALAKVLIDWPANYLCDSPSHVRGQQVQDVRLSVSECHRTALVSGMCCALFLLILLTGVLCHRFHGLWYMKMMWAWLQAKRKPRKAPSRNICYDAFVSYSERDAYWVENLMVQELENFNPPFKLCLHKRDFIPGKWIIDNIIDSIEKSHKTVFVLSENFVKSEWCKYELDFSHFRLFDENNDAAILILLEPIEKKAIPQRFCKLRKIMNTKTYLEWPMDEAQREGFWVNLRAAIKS

TLR2/6 = TLR2/6 (Homo sapiens, UniProt O60603); assay: IL-1β mRNA in THP-1 cells stimulated with TLR2/6 agonists (P2C, zymosan); assay type: cell-based; parameters: expressed in transfected cells; settings: C29 50, 100 or 200 μM
Chain of TLR2/6 (O60603 21-784): as above

Compound: COc1cccc(/C=N/c2cccc(C(=O)O)c2C)c1O [Compound C29]
- cytotoxicity (LDH release) [1]: no effect; also recorded: not cytotoxic
- IFN-β mRNA (MyD88-independent pathway) [2]: no significant inhibitory effect
- P3C-induced NF-κβ activation ([3]; 5 to 30 min): reduced NF-κβ activation
- P3C-induced degradation of IκBα ([3]; 15 and 30 min): prevented P3C-induced degradation of IκBα
- P3C-induced MAPK activation ([3]; 30 min): blocked robust MAPK activation
- P3C-induced IL-1β gene expression (TLR2/1; P3C 50 ng/mL, 1 h and 4 h): inhibited P3C- and P2C-induced IL-1β gene expression significantly
- LTA SA-induced IL-1β mRNA (TLR2/1; S. aureus LTA 1 μg/mL 4 hrs): blocked zymosan- and LTA SA-induced IL-1β mRNA dose-dependently
- P2C-induced IL-1β gene expression (TLR2/6; P2C 50 ng/mL, 1 h and 4 h): inhibited P3C- and P2C-induced IL-1β gene expression significantly
- zymosan-induced IL-1β mRNA (TLR2/6; zymosan 10 μg/mL 4 hrs): blocked zymosan- and LTA SA-induced IL-1β mRNA dose-dependently
